# Laboratory results as given in ChEMBL document CHEMBL1147578, “Design, synthesis, and SAR of anthranilamide-based factor Xa inhibitors with improved functional activity” (Bioorg Med Chem Lett, 2004).
# pIC50: −log10 of the molar value.
# Tests used:
# Coagulation factor X = Coagulation factor X (Homo sapiens, UniProt P00742); assay: In vitro inhibitory activity against coagulation factor X.
# Prothrombin = Prothrombin (Homo sapiens, UniProt P00734); assay: Inhibitory activity against thrombin.
# [1] = target: Vitamin K-dependent protein C (Homo sapiens, UniProt P04070); assay: Inhibitory activity against activated protein C
# Sequence of Vitamin K-dependent protein C (P04070 43-197 limits assumed): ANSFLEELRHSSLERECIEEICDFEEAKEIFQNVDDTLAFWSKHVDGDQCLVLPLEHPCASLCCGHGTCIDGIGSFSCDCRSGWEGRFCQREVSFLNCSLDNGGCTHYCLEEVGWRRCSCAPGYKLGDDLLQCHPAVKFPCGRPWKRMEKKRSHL
# Sequence of Vitamin K-dependent protein C (P04070 212-461 limits assumed): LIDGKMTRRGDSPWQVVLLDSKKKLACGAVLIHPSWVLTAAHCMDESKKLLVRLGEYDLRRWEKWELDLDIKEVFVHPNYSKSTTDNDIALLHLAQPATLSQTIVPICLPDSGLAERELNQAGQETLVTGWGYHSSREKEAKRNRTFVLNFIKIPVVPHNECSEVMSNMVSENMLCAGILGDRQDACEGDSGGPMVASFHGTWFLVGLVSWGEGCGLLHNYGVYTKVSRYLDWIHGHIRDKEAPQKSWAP
# [2] = target: Tissue-type plasminogen activator (Homo sapiens, UniProt P00750); assay: Inhibitory activity against tissue type plasminogen activator.
# Sequence of Tissue-type plasminogen activator (P00750 whole entry): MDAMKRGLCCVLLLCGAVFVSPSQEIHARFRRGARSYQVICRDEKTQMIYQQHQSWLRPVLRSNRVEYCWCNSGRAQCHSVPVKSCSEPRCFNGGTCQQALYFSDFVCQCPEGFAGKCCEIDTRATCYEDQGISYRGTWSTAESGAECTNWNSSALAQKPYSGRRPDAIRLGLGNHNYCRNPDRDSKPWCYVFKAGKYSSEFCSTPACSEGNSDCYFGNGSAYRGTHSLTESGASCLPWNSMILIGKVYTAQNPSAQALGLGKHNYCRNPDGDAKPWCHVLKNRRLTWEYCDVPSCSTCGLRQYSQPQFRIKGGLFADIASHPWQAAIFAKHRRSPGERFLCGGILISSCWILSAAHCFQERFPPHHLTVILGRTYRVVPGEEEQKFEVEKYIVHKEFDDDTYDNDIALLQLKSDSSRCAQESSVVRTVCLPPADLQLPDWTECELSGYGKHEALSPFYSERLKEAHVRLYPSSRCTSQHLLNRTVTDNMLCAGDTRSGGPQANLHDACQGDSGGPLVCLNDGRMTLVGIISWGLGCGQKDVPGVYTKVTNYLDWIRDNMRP
# Serine protease 1 = Serine protease 1 (Homo sapiens, UniProt P07477); assay: Inhibitory activity against trypsin.
# Sequence of Serine protease 1 (P07477 whole entry): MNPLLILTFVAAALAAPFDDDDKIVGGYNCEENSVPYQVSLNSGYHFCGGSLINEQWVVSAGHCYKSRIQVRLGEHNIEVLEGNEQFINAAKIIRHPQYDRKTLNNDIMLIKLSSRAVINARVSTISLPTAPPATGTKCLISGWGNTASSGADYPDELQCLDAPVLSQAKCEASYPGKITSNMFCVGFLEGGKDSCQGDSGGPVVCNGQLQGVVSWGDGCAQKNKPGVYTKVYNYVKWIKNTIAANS
# Plasminogen = Plasminogen (Homo sapiens, UniProt P00747); assay: Inhibitory activity against plasmin.
# Sequence of Plasminogen (P00747 97-580 limits assumed): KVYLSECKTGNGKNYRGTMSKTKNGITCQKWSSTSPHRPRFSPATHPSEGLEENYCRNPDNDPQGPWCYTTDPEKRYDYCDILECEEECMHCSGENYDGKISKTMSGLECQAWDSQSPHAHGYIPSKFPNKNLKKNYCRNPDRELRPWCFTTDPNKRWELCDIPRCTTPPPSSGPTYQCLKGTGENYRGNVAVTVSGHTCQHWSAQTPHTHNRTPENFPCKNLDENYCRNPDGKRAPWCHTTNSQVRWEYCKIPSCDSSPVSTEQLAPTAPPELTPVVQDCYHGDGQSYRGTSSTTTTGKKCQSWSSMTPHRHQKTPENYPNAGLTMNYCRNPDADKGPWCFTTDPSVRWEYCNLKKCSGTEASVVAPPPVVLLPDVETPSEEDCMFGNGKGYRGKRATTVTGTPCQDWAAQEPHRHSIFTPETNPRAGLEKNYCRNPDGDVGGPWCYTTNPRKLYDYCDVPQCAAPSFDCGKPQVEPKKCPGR
# Sequence of Plasminogen (P00747 581-810 limits assumed): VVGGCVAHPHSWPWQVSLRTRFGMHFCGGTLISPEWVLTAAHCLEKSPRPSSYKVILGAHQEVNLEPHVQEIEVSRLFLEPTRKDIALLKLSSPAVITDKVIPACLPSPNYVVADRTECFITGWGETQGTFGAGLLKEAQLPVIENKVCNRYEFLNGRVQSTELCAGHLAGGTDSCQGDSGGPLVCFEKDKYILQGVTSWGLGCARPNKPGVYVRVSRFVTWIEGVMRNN
# Homo sapiens = species on record: Homo sapiens; assay: Concentration required to double the lag time of maximum thrombin generation in human plasma-based thrombin generation assay; assay type: functional
# Sequence of Coagulation factor X (P00742 41-179 limits assumed): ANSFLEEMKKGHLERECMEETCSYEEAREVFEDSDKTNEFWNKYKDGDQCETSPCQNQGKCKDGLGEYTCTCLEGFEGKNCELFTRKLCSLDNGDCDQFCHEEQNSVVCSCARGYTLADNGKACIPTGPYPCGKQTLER
# Sequence of Coagulation factor X (P00742 235-488 limits assumed): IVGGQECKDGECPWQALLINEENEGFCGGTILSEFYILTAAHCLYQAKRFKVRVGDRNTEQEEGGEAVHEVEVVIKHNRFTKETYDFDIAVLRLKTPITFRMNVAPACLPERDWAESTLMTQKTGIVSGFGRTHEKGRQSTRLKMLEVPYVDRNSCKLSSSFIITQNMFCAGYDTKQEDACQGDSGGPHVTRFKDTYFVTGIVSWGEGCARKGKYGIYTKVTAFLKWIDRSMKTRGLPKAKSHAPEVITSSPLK
Compound,pIC50 (Coagulation factor X),pIC50 (Prothrombin),pIC50 [1],pIC50 [2],pIC50 (Serine protease 1),pIC50 (Plasminogen),Activity (Homo sapiens) [µM]
C[N+]1(Cc2ccc(C(=O)Nc3ccc(Cl)cc3C(=O)Nc3ccc(Cl)cn3)cc2)CCCC1,8.64,< 4.96,< 4.96,< 4.96,< 4.96,< 4.96,
NCc1ccccc1-c1ccc(C(=O)Nc2ccc(Cl)cc2C(=O)Nc2ccc(Cl)cn2)cc1,8.89,,,,,,>5
CCOC(=O)CN(C)Cc1ccc(C(=O)Nc2ccc(Cl)cc2C(=O)Nc2ccc(Cl)cn2)cc1,6.75,< 4.96,< 4.96,< 4.96,< 4.96,< 4.96,
C/N=C(/NC)N(C)Cc1ccc(C(=O)Nc2ccc(Cl)cc2C(=O)Nc2ccc(Cl)cn2)cc1,9.10,< 4.96,< 4.96,< 4.96,< 4.96,< 4.96,
CN(Cc1ccc(C(=O)Nc2ccc(Cl)cc2C(=O)Nc2ccc(Cl)cn2)cc1)C1=NCCN1,8.70,< 4.96,< 4.96,< 4.96,< 4.96,< 4.96,
CN(CC(=O)O)Cc1ccc(C(=O)Nc2ccc(Cl)cc2C(=O)Nc2ccc(Cl)cn2)cc1,6.81,< 4.96,< 4.96,< 4.96,< 4.96,< 4.96,
CNC1=NCCN1Cc1ccc(C(=O)Nc2ccc(Cl)cc2C(=O)Nc2ccc(Cl)cn2)cc1,8.46,< 4.96,< 4.96,< 4.96,< 4.96,< 4.96,
CNCc1ccc(C(=O)Nc2ccc(Cl)cc2C(=O)Nc2ccc(Cl)cn2)cc1,8.15,< 4.96,< 4.96,< 4.96,< 4.96,< 4.96,
CCN(C)Cc1ccc(C(=O)Nc2ccc(Cl)cc2C(=O)Nc2ccc(Cl)cn2)cc1,7.92,< 4.96,< 4.96,< 4.96,< 4.96,< 4.96,
CN(C)C1=NCCN1Cc1ccc(C(=O)Nc2ccc(Cl)cc2C(=O)Nc2ccc(Cl)cn2)cc1,8.89,< 4.96,< 4.96,< 4.96,< 4.96,< 4.96,
CN(Cc1ccc(C(=O)Nc2ccc(Cl)cc2C(=O)Nc2ccc(Cl)cn2)cc1)C1=NCCO1,8.82,< 4.96,< 4.96,< 4.96,< 4.96,< 4.96,
CN(C)CCN(C)Cc1ccc(C(=O)Nc2ccc(Cl)cc2C(=O)Nc2ccc(Cl)cn2)cc1,8.16,< 4.96,< 4.96,< 4.96,< 4.96,< 4.96,
NNCc1ccc(C(=O)Nc2ccc(Cl)cc2C(=O)Nc2ccc(Cl)cn2)cc1,7.40,< 4.96,< 4.96,< 4.96,< 4.96,< 4.96,
CN(CCN(C)C(=N)N)Cc1ccc(C(=O)Nc2ccc(Cl)cc2C(=O)Nc2ccc(Cl)cn2)cc1,8.70,< 4.96,< 4.96,< 4.96,< 4.96,< 4.96,
O=C(Nc1ccc(Cl)cc1C(=O)Nc1ccc(Cl)cn1)c1ccc(C[n+]2ccccc2)cc1,8.24,< 4.96,< 4.96,< 4.96,< 4.96,< 4.96,
CC(=N)N(C)CCN(C)Cc1ccc(C(=O)Nc2ccc(Cl)cc2C(=O)Nc2ccc(Cl)cn2)cc1,8.96,< 4.96,< 4.96,< 4.96,< 4.96,< 4.96,
CN(Cc1ccc(C(=O)Nc2ccc(Cl)cc2C(=O)Nc2ccc(Cl)cn2)cc1)C(=N)c1ccccc1,7.96,< 4.96,< 4.96,< 4.96,< 4.96,< 4.96,
CC(=N)NCc1ccc(C(=O)Nc2ccc(Cl)cc2C(=O)Nc2ccc(Cl)cn2)cc1,8.44,< 4.96,< 4.96,< 4.96,< 4.96,< 4.96,
CCN(CC)Cc1ccc(C(=O)Nc2ccc(Cl)cc2C(=O)Nc2ccc(Cl)cn2)cc1,7.46,< 4.96,< 4.96,< 4.96,< 4.96,< 4.96,
CN(Cc1ccc(C(=O)Nc2ccc(Cl)cc2C(=O)Nc2ccc(Cl)cn2)cc1)C1=NCCS1,8.00,< 4.96,< 4.96,< 4.96,< 4.96,< 4.96,
COCCN(C)Cc1ccc(C(=O)Nc2ccc(Cl)cc2C(=O)Nc2ccc(Cl)cn2)cc1,7.28,< 4.96,< 4.96,< 4.96,< 4.96,< 4.96,
O=C(Nc1ccc(Cl)cc1C(=O)Nc1ccc(Cl)cn1)c1ccc(CN2CCNC2=O)cc1,7.52,< 4.96,< 4.96,< 4.96,< 4.96,< 4.96,
CN(CCO)Cc1ccc(C(=O)Nc2ccc(Cl)cc2C(=O)Nc2ccc(Cl)cn2)cc1,7.09,< 4.96,< 4.96,< 4.96,< 4.96,< 4.96,
CC(=O)NNCc1ccc(C(=O)Nc2ccc(Cl)cc2C(=O)Nc2ccc(Cl)cn2)cc1,7.40,< 4.96,< 4.96,< 4.96,< 4.96,< 4.96,
CNCCN(C)Cc1ccc(C(=O)Nc2ccc(Cl)cc2C(=O)Nc2ccc(Cl)cn2)cc1,8.17,< 4.96,< 4.96,< 4.96,< 4.96,< 4.96,
N=C(N)NCc1ccc(C(=O)Nc2ccc(Cl)cc2C(=O)Nc2ccc(Cl)cn2)cc1,8.85,< 4.96,< 4.96,< 4.96,< 4.96,< 4.96,

# Continued, in another order:
pIC50 (Coagulation factor X),pIC50 (Prothrombin),pIC50 [1],pIC50 [2],pIC50 (Serine protease 1),pIC50 (Plasminogen),Compound,Activity (Homo sapiens) [µM]
6.26,< 4.96,< 4.96,< 4.96,< 4.96,< 4.96,O=C(Nc1ccc(Cl)cc1C(=O)Nc1ccc(Cl)cn1)c1ccc(CN2CCCC2=O)cc1,
6.64,< 4.96,< 4.96,< 4.96,< 4.96,< 4.96,O=C(Nc1ccc(Cl)cc1C(=O)Nc1ccc(Cl)cn1)c1ccc(CN2CCC(C(=O)O)CC2)cc1,
7.46,< 4.96,< 4.96,< 4.96,< 4.96,< 4.96,O=C(Nc1ccc(Cl)cc1C(=O)Nc1ccc(Cl)cn1)c1ccc(CN2CCN=C2S)cc1,
8.30,< 4.96,< 4.96,< 4.96,< 4.96,< 4.96,CC(=N)N1CCN(Cc2ccc(C(=O)Nc3ccc(Cl)cc3C(=O)Nc3ccc(Cl)cn3)cc2)CC1,
7.77,< 4.96,< 4.96,< 4.96,< 4.96,< 4.96,O=C(Nc1ccc(Cl)cc1C(=O)Nc1ccc(Cl)cn1)c1ccc(CN2CCNCC2)cc1,
8.20,< 4.96,< 4.96,< 4.96,< 4.96,< 4.96,NC1=NCCCCN1Cc1ccc(C(=O)Nc2ccc(Cl)cc2C(=O)Nc2ccc(Cl)cn2)cc1,
8.42,< 4.96,< 4.96,< 4.96,< 4.96,< 4.96,NC1=NCCCN1Cc1ccc(C(=O)Nc2ccc(Cl)cc2C(=O)Nc2ccc(Cl)cn2)cc1,
6.85,< 4.96,< 4.96,< 4.96,< 4.96,< 4.96,O=C(Nc1ccc(Cl)cc1C(=O)Nc1ccc(Cl)cn1)c1ccc(CN2CCOCC2)cc1,
7.82,< 4.96,< 4.96,< 4.96,< 4.96,< 4.96,O=C(Nc1ccc(Cl)cc1C(=O)Nc1ccc(Cl)cn1)c1ccc(CN2CCCCC2)cc1,
7.12,< 4.96,< 4.96,< 4.96,< 4.96,< 4.96,NC(=O)C1CCN(Cc2ccc(C(=O)Nc3ccc(Cl)cc3C(=O)Nc3ccc(Cl)cn3)cc2)CC1,
6.87,< 4.96,< 4.96,< 4.96,< 4.96,< 4.96,O=C(Nc1ccc(Cl)cc1C(=O)Nc1ccc(Cl)cn1)c1ccc(CN2CCC(O)CC2)cc1,
7.80,< 4.96,< 4.96,< 4.96,< 4.96,< 4.96,O=C(Nc1ccc(Cl)cc1C(=O)Nc1ccc(Cl)cn1)c1ccc(CN2CCCC2)cc1,
6.77,< 4.96,< 4.96,< 4.96,< 4.96,< 4.96,CCOC(=O)C1CCN(Cc2ccc(C(=O)Nc3ccc(Cl)cc3C(=O)Nc3ccc(Cl)cn3)cc2)CC1,
8.00,< 4.96,< 4.96,< 4.96,< 4.96,< 4.96,NCc1ccc(C(=O)Nc2ccc(Cl)cc2C(=O)Nc2ccc(Cl)cn2)cc1,
7.82,< 4.96,< 4.96,< 4.96,< 4.96,< 4.96,NC1CCN(Cc2ccc(C(=O)Nc3ccc(Cl)cc3C(=O)Nc3ccc(Cl)cn3)cc2)CC1,
7.82,< 4.96,< 4.96,< 4.96,< 4.96,< 4.96,CN1CCN(Cc2ccc(C(=O)Nc3ccc(Cl)cc3C(=O)Nc3ccc(Cl)cn3)cc2)CC1,
